Where two headings read alike, the source gives them in different places.
Assay: Pharmacokinetic study of 14 compounds in rat plasma after oral administration of XYP (UPLC-MS/MS)
Format: in vivo, Sprague–Dawley rats
Parameters: Kel (elimination rate constant): unit not given here
Details: oral XYP 4 g/kg; for AUC(0-inf) / AUC(0-t) / Cmax / half-life / MRT last / MRT inf / Tmax: female, Sprague-Dawley; for MRT last: n = 6, read-out: MRT0–t; for MRT inf: n = 6, read-out: MRT0–∞; for Tmax: rat, plasma, po, 4 g/kg
Experimental: The validated UPLC-MS/MS method was successfully applied to the pharmacokinetic study of 14 compounds in rat plasma after the oral administration of XYP at a dose of 4 g/kg (8-fold the clinical dosage).
Quantitative analysis was conducted on a Waters® Micromass® Quattro Premier™ XE triple-quadrupole tandem mass spectrometer (Waters Corp., Milford, MA, USA). Chromatographic separation was performed on an ACQUITY UPLCTM BEH C18 column (1.7 µm, 50 × 2.1 mm; Waters Corp.) equipped with an ACQUITY UPLC C18 guard column. The column temperature was maintained at 35 °C. The mobile phase consisted of 0.1% formic acid in water (A) and acetonitrile (B). The total flow rate was 0.3 mL/min. Chromatographic separation was achieved using a 14.5-min gradient elution. The gradient conditions of the mobile phase were as follows: 0–4 min, 4–22% (B); 4–5 min, 22–27% (B); 5–10 min, 27–50% (B); and 10–14.5 min, 50–96% (B). The samples were kept at 4 °C in the auto-sampler, and the injection volume was 5 µL.
Methanol (1.5 mL), 10 μg/mL IS and 300 μL plasma was mixed, then vortexed for 1 min. After centrifuging at 14,000× g for 10 min, the supernatant was put into another centrifuge tube. The residue was vortexed with another 1.5 mL methanol and centrifuged again, and the two supernatants were combined and evaporated to dryness under a flow of nitrogen gas at 40 °C. The residue was then dissolved in 100 μL methanol and vortexed for 1 min. Finally, the vortexing and centrifugation process was again repeated, and 5 μL of the supernatant was injected into the UPLC-MS/MS system for analysis.
Twenty healthy female Sprague–Dawley rats (300 ± 20 g) were purchased from the Animal Safety Evaluation Center of Heilongjiang University of Chinese Medicine (Heilongjiang, China). All protocols for animal experiments were approved in accordance with the Regulations of Experimental Animal Administration issued by the State Commission of Science and Technology of the People’s Republic of China. The rats were kept under a light/dark cycle of 12 h, within the temperature range of 24 °C ± 2 °C to room temperature, and at a humidity of 50 ± 10%. All rats were fasted for 12 h before experimentation but were allowed to drink freely. XYP extract was dissolved in water, and the rats were administrated orally with 4 g/kg XYP. Blood samples were collected from the suborbital venous lexus at 0, 0.083, 0.17, 0.33, 0.50, 0.75, 1.0, 2.0, 4.0, 8.0, 12 and 24 h into 1.5-mL heparinized polythene tubes […]. The blood samples were immediately centrifuged at 4500 rpm for 10 min, and the plasma was stored at −80 °C until analysis. The pharmacokinetic parameters (Cmax, tmax, t1/2, Kel, AUC0–t, AUC0–∞, MRT0–t, MRT0–∞) were calculated with the software Winnolin 3.2.

[1] = mean ± SD, n = 6, read-out: tmax
[2] = read-out: tmax (time to maximum plasma concentration)

Compound | AUC(0-inf) (mean ± SD, n = 6) [ng·h/mL] | AUC(0-t) (mean ± SD, n = 6) [ng·h/mL] | Cmax (mean ± SD, n = 6) [ng/mL] | half-life (mean ± SD, n = 6) [h] | MRT last (mean ± SD) [h] | MRT inf (mean ± SD) [h] | Tmax [1] [h] | Kel (elimination rate constant) (mean ± SD, n = 6) | Tmax [2] [h] | time of first detection in plasma [min] | shape of plasma concentration-time curve | time of second maximal plasma concentration | t1/2 (mean ± SD, n = 6) [h]
CC12CC(O)C3CC1(OC1OC(CO)C(O)C(O)C1O)C3(COC(=O)c1ccccc1)C(=O)O2 (centres unmarked) [Albiflorin, albiflorin] | 135 ± 65.6 | 128 ± 64.9 | 58.3 ± 27.5 | 7.11 ± 4.57 | 4.18 ± 1.58 | 6.34 ± 4.5 | 0.39 ± 0.09 | 0.13 ± 0.06 | – | – | – | – | –
C=C1CCC[C@]2(C)C[C@@H]3OC(=O)C(C)=C3C[C@@H]12 [Atractylenolide II, atractylenolide II] | 70.2 ± 25.6 | 69.5 ± 25.7 | 22.5 ± 8.04 | 3.54 ± 1.21 | 4.15 ± 0.82 | 4.43 ± 0.98 | 0.64 ± 0.29 | 0.21 ± 0.07 | – | – | – | – | –
C=C1CCC[C@]2(C)C[C@]3(O)OC(=O)C(C)=C3C[C@@H]12 [Atractylenolide III, atractylenolide III] | 1130 ± 487 | 1040 ± 497 | 230 ± 108 | 6.95 ± 2.65 | 6.23 ± 1.55 | 8.6 ± 3.13 | 0.67 ± 0.26 | 0.11 ± 0.05 | – | – | – | – | –
COc1cc(/C=C/C(=O)O)ccc1O [Ferulic acid, ferulic acid] | 1610 ± 853 | 1580 ± 851 | 632 ± 244 | 5.3 ± 1.85 | 3.97 ± 0.8 | 4.66 ± 0.52 | 0.21 ± 0.1 | 0.15 ± 0.05 | 0.2 | 5 | – | – | –
CC1(C)[C@@H](O[C@H]2O[C@H](C(=O)O)[C@@H](O)[C@H](O)[C@H]2O[C@@H]2O[C@H](C(=O)O)[C@@H](O)[C@H](O)[C@H]2O)CC[C@]2(C)[C@H]3C(=O)C=C4[C@@H]5C[C@@](C)(C(=O)O)CC[C@]5(C)CC[C@@]4(C)[C@]3(C)CC[C@@H]12 [Glycyrrhizic acid, glycyrrhizic acid] | 156 ± 59.6 | 138 ± 57 | 18.6 ± 6.61 | 7.63 ± 5.35 | 10.1 ± 0.58 | 13.6 ± 5.72 | 0.33 ± 0.11 | 0.12 ± 0.05 | – | – | double peaks | – | –
O=C(/C=C/c1ccc(O)cc1)c1ccc(O)cc1O [Isoliquiritigenin, isoliquiritigenin] | 185 ± 89.9 | 157 ± 76.7 | 33.6 ± 9.37 | 5.82 ± 3.25 | 5.98 ± 1.5 | 7.81 ± 3.39 | 0.39 ± 0.09 | 0.17 ± 0.12 | – | – | double peak | about 4 h | –
CCC/C=C1\OC(=O)C2=C1CCC=C2 [Ligustilide, ligustilide] | 207 ± 58.5 | 194 ± 57.7 | 65 ± 42.2 | 5.44 ± 3.09 | 5.63 ± 2.32 | 7.47 ± 4.23 | 0.31 ± 0.13 | 0.17 ± 0.10 | ~0.3 | – | – | – | –
O=C1C[C@@H](c2ccc(O)cc2)Oc2cc(O)ccc21 [Liquiritigenin, liquiritigenin] | 328 ± 198 | 286 ± 144 | 33.2 ± 12 | 6.43 ± 2.42 | 8.85 ± 1.09 | 11.5 ± 3.02 | 0.19 ± 0.07 | 0.12 ± 0.06 | – | – | double peak | about 4 h | –
O=C1C[C@@H](c2ccc(O[C@@H]3O[C@H](CO)[C@@H](O)[C@H](O)[C@H]3O)cc2)Oc2cc(O)ccc21 [Liquiritin, liquiritin] | 181 ± 90.9 | 163 ± 91.5 | 57.9 ± 36.6 | – | 5.7 ± 1.25 | 10.2 ± 6.79 | 0.39 ± 0.09 | 0.09 ± 0.04 | – | – | double peak | – | 9.32 ± 5.49
C[C@@]12C[C@@]3(O)O[C@@H](O1)[C@]1(COC(=O)c4ccccc4)[C@H]3C[C@@]12O[C@@H]1O[C@H](CO)[C@@H](O)[C@H](O)[C@H]1O [Paeoniflorin, paeoniflorin] | 718 ± 227 | 697 ± 211 | 587 ± 181 | 4.82 ± 1.71 | 4.17 ± 1.38 | 4.91 ± 1.68 | 0.42 ± 0.09 | 0.16 ± 0.06 | – | – | – | – | –
O=c1c(O)c(-c2ccc(O)c(O)c2)oc2cc(O)cc(O)c12 [Quercetin, quercetin] | 782 ± 415 | 766 ± 410 | 491 ± 168 | 4.09 ± 1.24 | 6.4 ± 0.85 | 7.03 ± 1.02 | 0.1 ± 0.03 | 0.19 ± 0.07 | 0.1 | – | – | ~8 h | –
C[C@H]1O[C@@H](O[C@H]2CC[C@@]3(C)[C@@H](CC[C@]4(C)[C@@H]3C=C[C@]35OC[C@@]6(CCC(C)(C)C[C@H]63)[C@@H](O)C[C@]54C)[C@]2(C)CO)[C@H](O)[C@@H](O[C@@H]2O[C@H](CO)[C@@H](O)[C@H](O)[C@H]2O)[C@H]1O [Saikosaponin a, saikosaponin a] | 18 ± 6.88 | 16.3 ± 5.15 | 6.05 ± 1.3 | 6.46 ± 2.57 | 6.61 ± 1.12 | 8.88 ± 3.49 | 0.42 ± 0.09 | 0.12 ± 0.03 | – | – | double peaks | – | –
C[C@@H]1O[C@@H](O[C@H]2[C@H](O)[C@@H](O)[C@H](O[C@H]3CC[C@]4(C)[C@H]5C=C[C@]67OC[C@@]8(CCC(C)(C)C[C@H]86)[C@@H](O)C[C@@]7(C)[C@]5(C)CC[C@H]4C3(C)C)O[C@@H]2CO[C@@H]2O[C@H](CO)[C@@H](O)[C@H](O)[C@H]2O)[C@H](O)[C@H](O)[C@H]1O [Saikosaponin c, saikosaponin c] | 5.93 ± 2.19 | 5.61 ± 1.92 | 0.96 ± 0.33 | 4.23 ± 2.83 | 6.49 ± 1.17 | 7.67 ± 2.7 | 0.42 ± 0.09 | 0.22 ± 0.11 | – | – | double peaks | – | –
CCC/C=C1\OC(=O)C2=C1CC[C@H](O)[C@H]2O [Senkyunolide I, senkyunolide I] | 1620 ± 967 | 1580 ± 986 | 403 ± 201 | 4.75 ± 2.78 | 5.31 ± 0.72 | 6.37 ± 2.39 | 0.36 ± 0.13 | 0.18 ± 0.07 | – | – | – | – | –

From article PMC6222316, “UPLC-MS/MS Method for the Determination of 14 Compounds in Rat Plasma and Its Application in a Pharmacokinetic Study of Orally Administered Xiaoyao Powder” (Molecules : A Journal of Synthetic Chemistry and Natural …, 2018)
